Each structure is given as a SMILES string.

As a reminder, the IC50 is the concentration that gives 50% inhibition.

Chain of human orexin-2 receptor (O43614 whole entry): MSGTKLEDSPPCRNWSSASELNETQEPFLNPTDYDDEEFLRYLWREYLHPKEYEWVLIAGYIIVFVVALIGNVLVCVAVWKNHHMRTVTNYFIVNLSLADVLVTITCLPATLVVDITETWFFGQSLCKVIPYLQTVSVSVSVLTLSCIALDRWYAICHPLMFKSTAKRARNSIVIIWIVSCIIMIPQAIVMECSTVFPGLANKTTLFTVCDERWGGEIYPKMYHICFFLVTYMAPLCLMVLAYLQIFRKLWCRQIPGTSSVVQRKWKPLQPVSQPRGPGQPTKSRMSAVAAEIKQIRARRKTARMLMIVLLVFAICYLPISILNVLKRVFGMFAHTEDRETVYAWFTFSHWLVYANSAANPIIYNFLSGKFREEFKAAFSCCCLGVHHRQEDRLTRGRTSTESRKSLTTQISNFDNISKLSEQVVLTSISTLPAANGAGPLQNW

The assay has as its target human orexin-2 receptor (Homo sapiens (Human), UniProt O43614). Nature of the assay: FLIPR Ca2+ Flux Assay, orexin-2 receptor antagonism in CHO cells. The format is cell-based. As to conditions: CHO cells expressing the human orexin-2 receptor; agonist 70 pM Ala-6,12 orexin-A; read-out: hOX2 FLIPR IC50. The gist of the method:
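CHO cells expressing rat OX1R or human OX2R, Fluo-4AM loaded, given compounds for 5 min, then challenged with 70 pM Ala-6,12 human orexin-A in HBSS/HEPES/BSA/probenecid, pH 7.4. FLIPR calcium fluorescence recorded 5 min; peak height versus agonist-alone gives IC50.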
Take `C[C@@H]1CC[C@@H](Oc2nccn3ncc(Br)c23)CN1C(=O)c1ccccc1-n1nccn1` [Example 88, (2-(2H-1,2,3-triazol-2-yl)phenyl)((2R,5R)-5-((3-bromopyrazolo[1,5-a]pyrazin-4-yl)oxy)-2-methylpiperidin-1-yl)methanone]: the IC50 came out at 7.3 nM.

Consider `Cc1cnn2ccnc(O[C@@H]3CC[C@@H](C)N(C(=O)c4ccccc4-n4nccn4)C3)c12` [Example 89, (2-(2H-1,2,3-triazol-2-yl)phenyl)((2R,5R)-2-methyl-5-((3-methylpyrazolo[1,5-a]pyrazin-4-yl)oxy)piperidin-1-yl)methanone], for which the 50% inhibitory concentration (IC50) turned out to be 19.2 nM.

For `C[C@@H]1CC[C@@H](Oc2cccn3nccc23)CN1C(=O)c1ccccc1-n1nccn1` [Example 90, (2-(2H-1,2,3-triazol-2-yl)phenyl)((2R,5R)-2-methyl-5-(pyrazolo[1,5-a]pyridin-4-yloxy)piperidin-1-yl)methanone], the IC50 stood at 125 nM.

Regarding `C[C@@H]1CC[C@@H](Oc2ccnc3ocnc23)CN1C(=O)c1ccccc1-n1nccn1` [Example 91, (2-(2H-1,2,3-triazol-2-yl)phenyl)((2R,5R)-2-methyl-5-(oxazolo[5,4-b]pyridin-7-yloxy)piperidin-1-yl)methanone], the concentration for half-maximal inhibition (IC50) worked out at 16.3 nM.

For `C[C@@H]1CC[C@@H](Oc2ccnc3ocnc23)CN1C(=O)c1ccccc1-n1ncnn1` [Example 92, (2-(2H-tetrazol-2-yl)phenyl)((2R,5R)-2-methyl-5-(oxazolo [5,4-b]pyridin-7-yloxy)piperidin-1-yl)methanone], the IC50 came out at 36.7 nM.

Turning to `COC(=O)c1ccccc1C(=O)N1C[C@H](Oc2ccnc3ocnc23)CC[C@H]1C` [Example 93, methyl 2-((2R,5R)-2-methyl-5-(oxazolo[5,4-b]pyridin-7-yloxy)piperidine-1-carbonyl)benzoate], the IC50 came out at 46.4 nM.

Turning to `CCOc1ccccc1C(=O)N1C[C@H](Oc2ccnc3ocnc23)CC[C@H]1C` [Example 94, (2-ethoxyphenyl)((2R,5R)-2-methyl-5-(oxazolo[5,4-b]pyridin-7-yloxy)piperidin-1-yl)methanone], the IC50 was found to be 24.4 nM.

As to `C[C@@H]1CC[C@@H](Oc2nccc3c2cnn3C)CN1C(=O)c1ccccc1-n1nccn1` [Example 95, (2-(2H-1,2,3-triazol-2-yl)phenyl)((2R,5R)-2-methyl-5-((1-methyl-1H-pyrazolo[4,3-c]pyridin-4-yl)oxy)piperidin-1-yl)methanone], the half-inhibitory concentration (IC50) turned out to be 17.8 nM.

On to `C[C@@H]1CC[C@@H](Nc2nccc3c2cnn3C)CN1C(=O)c1ccccc1-n1nccn1` [Example 96, (2-(2H-1,2,3-triazol-2-yl)phenyl)((2R,5R)-2-methyl-5-((1-methyl-1H-pyrazolo[4,3-c]pyridin-4-yl)amino)piperidin-1-yl)methanone], for which the half-inhibitory concentration (IC50) worked out at 60 nM.

On to `C[C@@H]1CC[C@@H](Nc2nccc3nn(C)cc23)CN1C(=O)c1ccccc1-n1nccn1` [Example 97, (2-(2H-1,2,3-triazol-2-yl)phenyl)((2R,5R)-2-methyl-5-((2-methyl-2H-pyrazolo[4,3-c]pyridin-4-yl)amino)piperidin-1-yl) methanone], for which the IC50 amounted to 124 nM.

Regarding `C[C@@H]1CC[C@@H](Oc2nccc3c2ncn3C)CN1C(=O)c1ccccc1-n1nccn1` [Example 98, (2-(2H-1,2,3-triazol-2-yl)phenyl)((2R,5R)-2-methyl-5-((1-methyl-1H-imidazo[4,5-c]pyridin-4-yl)oxy)piperidin-1-yl)methanone], the IC50 worked out at 28.8 nM.

As for `C[C@@H]1CC[C@@H](Oc2nccc3ncn(C)c23)CN1C(=O)c1ccccc1-n1nccn1` [Example 99, (2-(2H-1,2,3-triazol-2-yl)phenyl)((2R,5R)-2-methyl-5-((3-methyl-3H-imidazo[4,5-c]pyridin-4-yl)oxy)piperidin-1-yl)methanone], the 50% inhibitory concentration (IC50) amounted to 42.3 nM.

For the molecule `C[C@@H]1CC[C@@H](Nc2nccc3ncn(C)c23)CN1C(=O)c1ccccc1-n1nccn1` [Example 100, (2-(2H-1,2,3-triazol-2-yl)phenyl)((2R,5R)-2-methyl-5-((3-methyl-3H-imidazo[4,5-c]pyridin-4-yl)amino)piperidin-1-yl)methanone], the concentration for half-maximal inhibition (IC50) worked out at 95.8 nM.

On to `C[C@@H]1CC[C@@H](Nc2nccc3c2ncn3C)CN1C(=O)c1ccccc1-n1nccn1` [Example 101, (2-(2H-1,2,3-triazol-2-yl)phenyl)((2R,5R)-2-methyl-5-((1-methyl-1H-imidazo[4,5-c]pyridin-4-yl)amino)piperidin-1-yl)methanone], for which the IC50 turned out to be 38.5 nM.

For the molecule `C[C@@H]1CC[C@@H](Oc2nccn3cncc23)CN1C(=O)c1ccccc1-n1nccn1` [Example 102, (2-(2H-1,2,3-triazol-2-yl)phenyl)((2R,5R)-5-(imidazo[1,5-a]pyrazin-8-yloxy)-2-methylpiperidin-1-yl)methanone], the IC50 came to 14 nM.

In the case of `Cc1ncc2c(O[C@@H]3CC[C@@H](C)N(C(=O)c4ccccc4-n4nccn4)C3)nccn12` [Example 103, (2-(2H-1,2,3-triazol-2-yl)phenyl)((2R,5R)-2-methyl-5-((3-methylimidazo[1,5-a]pyrazin-8-yl)oxy)piperidin-1-yl)methanone], the IC50 was 23.5 nM.

Consider `Cc1nc2ccnc(O[C@@H]3CC[C@@H](C)N(C(=O)c4ccccc4-n4nccn4)C3)n2n1` [Example 104, (2-(2H-1,2,3-triazol-2-yl)phenyl)((2R,5R)-2-methyl-5-((2-methyl-[1,2,4]triazolo[1,5-c]pyrimidin-5-yl)oxy)piperidin-1-yl)methanone], for which the IC50 was 60 nM.

As to `Cc1nc2ccnc(N[C@@H]3CC[C@@H](C)N(C(=O)c4ccccc4-n4nccn4)C3)n2n1` [Example 105, (2-(2H-1,2,3-triazol-2-yl)phenyl)((2R,5R)-2-methyl-5-((2-methyl-[1,2,4]triazolo[1,5-c]pyrimidin-5-yl)amino)piperidin-1-yl)methanone], the half-inhibitory concentration (IC50) was found to be 27.6 nM.

Consider `C[C@@H]1CC[C@@H](Oc2cccn3c(=O)n(C)nc23)CN1C(=O)c1ccccc1-n1nccn1` [Example 106, 8-(((3R,6R)-1-(2-(2H-1,2,3-triazol-2-yl)benzoyl)-6-methylpiperidin-3-yl)oxy)-2-methyl-[1,2,4]triazolo[4,3-a]pyridin-3(2H)-one], for which the IC50 was 178 nM.

Source of the values: patent US10526336B2, “Fused heteroaryl derivatives as orexin receptor antagonists” (Merck Sharp & Dohme Corp., priority 2014, dated 2020).
